Like-named read-outs stand apart in the source and are kept apart here. Ends that are not written are not given here. Peptide text beside a SMILES is read from it.
What was measured:
S. mutans [1] = conditions: Streptococcus mutans
MRSA = experiment: MIC of antimicrobial peptides; type: cell-based, methicillin resistant Staphylococcus aureus
Protocol: (§1) Typically, the in vitro antimicrobial activity of antimicrobial agents is tested using standard NCCLS bacterial inhibition assays, or MIC tests (see, National Committee on Clinical Laboratory Standards “Performance Standards for Antimicrobial Susceptibility Testing,” NCCLS Document M100-S5 Vol. 14, No. 16, December 1994; “Methods for dilution antimicrobial susceptibility test for bacteria that grow aerobically-Third Edition,” Approved Standard M7-A3, National Committee for Clinical Standards, Villanova, Pa.).

B. subtilis = experiment: MIC of antimicrobial peptides; type: cell-based
Protocol: as §1

T. rubrum = experiment: MIC of antimicrobial peptides; type: cell-based
Protocol: as §1

E. coli = experiment: MIC of antimicrobial peptides; type: cell-based
Protocol: as §1

S. mutans [2] = type: cell-based
Protocol: as §1

P. aeruginosa = type: cell-based
Protocol: as §1

A. niger = experiment: MIC of antimicrobial peptides; type: cell-based
Protocol: as §1

C. difficile = type: cell-based
Protocol: as §1

S. pneumoniae = type: cell-based
Protocol: as §1

A. baumannii = type: cell-based
Protocol: as §1

C. jeikeium = type: cell-based
Protocol: as §1

S. epidermidis = type: cell-based
Protocol: as §1

In the case of `CC[C@H](C)[C@H](NC(=O)CNC(=O)[C@H](CCCCN)NC(=O)[C@H](CCCNC(=N)N)NC(=O)[C@@H](NC(=O)[C@@H](NC(=O)[C@H](CCCNC(=N)N)NC(=O)[C@H](CC(C)C)NC(=O)[C@H](CC(N)=O)NC(=O)[C@H](CCCCN)NC(=O)CNC(=O)CNC(=O)CNC(=O)[C@H](CCCCN)NC(=O)CNC(=O)[C@H](CC(C)C)NC(=O)[C@H](C)NC(=O)[C@H](CCC(N)=O)NC(=O)[C@@H](NC(=O)[C@H](CCC(N)=O)NC(=O)[C@H](CO)NC(=O)[C@H](CCCNC(=N)N)NC(=O)[C@H](CC(N)=O)NC(=O)[C@H](CCC(N)=O)NC(=O)[C@H](CC(C)C)NC(=O)[C@H](CCCNC(=N)N)NC(=O)[C@H](Cc1ccccc1)NC(=O)[C@H](CCC(N)=O)NC(=O)[C@@H](N)[C@@H](C)O)[C@@H](C)O)[C@@H](C)CC)[C@@H](C)CC)C(=O)N[C@@H](Cc1c[nH]cn1)C(=O)N[C@H](C(=O)N[C@H](C(=O)N[C@@H](CCCCN)C(=O)N[C@@H](CCCCN)C(=O)N[C@@H](Cc1ccc(O)cc1)C(N)=O)[C@@H](C)CC)[C@@H](C)CC` [F7/11/15 sub Q_C16G2], the “% viability remaining” value (S. mutans [1]) is reported as 93%.
In the case of `CC[C@H](C)[C@H](NC(=O)CNC(=O)[C@@H](N)CCSC)C(=O)N[C@H](C(=O)N[C@@H](C)C(=O)NCC(=O)N[C@H](C(=O)N[C@H](C(=O)N[C@@H](CCCCN)C(=O)N[C@@H](Cc1ccccc1)C(=O)N[C@H](C(=O)N[C@@H](CCCCN)C(=O)NCC(=O)N[C@@H](CC(C)C)C(=O)N[C@H](C(=O)N[C@@H](CCC(=O)O)C(=O)N[C@@H](CCCCN)C(=O)N[C@@H](Cc1ccccc1)C(=O)N[C@H](C(=O)NCC(=O)N[C@@H](CCCCN)C(=O)O)[C@@H](C)O)[C@@H](C)CC)[C@@H](C)CC)[C@@H](C)CC)[C@@H](C)CC)[C@@H](C)CC` [PF-006], the MIC (MRSA) is reported as “MRSA, 50 μM” and the MIC (B. subtilis) is reported as “B. subtilis, 25 μM”.
For `CSCC[C@H](N)C(=O)N[C@@H](CCCCN)C(=O)N[C@@H](CCCNC(=N)N)C(=O)N[C@@H](CCCNC(=N)N)C(=O)N[C@@H](CCCNC(=N)N)C(=O)N[C@@H](CS)C(=O)N[C@@H](CC(N)=O)C(=O)N[C@@H](Cc1c[nH]c2ccccc12)C(=O)N[C@@H](CS)C(=O)NCC(=O)N[C@@H](CCCCN)C(=O)N[C@@H](CC(C)C)C(=O)N[C@@H](Cc1ccccc1)C(=O)N[C@@H](Cc1ccc(O)cc1)C(=O)N[C@@H](CC(C)C)C(=O)N[C@@H](CCC(=O)O)C(=O)N[C@@H](CCC(=O)O)C(=O)N[C@@H](CCCCN)C(=O)N[C@@H](CO)C(=O)N[C@@H](CCCCN)C(=O)N[C@@H](CCC(=O)O)C(=O)N[C@@H](C)C(=O)N[C@@H](Cc1ccc(O)cc1)C(=O)N[C@@H](CS)C(=O)N[C@@H](CS)C(=O)N[C@@H](CCCCN)C(=O)N[C@@H](CCC(=O)O)C(=O)N[C@@H](CS)C(=O)N[C@@H](CCCNC(=N)N)C(=O)N[C@@H](CCCCN)C(=O)N[C@@H](CCCCN)C(=O)N[C@@H](C)C(=O)N[C@@H](CCCCN)C(=O)N[C@@H](CCCCN)C(=O)N[C@H](C(=O)N[C@@H](CCCCN)C(=O)N[C@@H](CCCCN)C(=O)O)C(C)C` [PF-307] (H-MKRRRCNWCGKLFYLEEKSKEAYCCKECRKKAKKVKK-OH; N-terminus and C-terminus assumed), the MIC (B. subtilis) was “B. subtilis, 50 μM” and the MIC (T. rubrum) was “T. rubrum, 50 μM”.
With “FESKILNASKELDKEKKVNTALSFNSHQDFAKAYQNGKI [PF-606]” the MIC (MRSA) was “MRSA, 50 μM”, the MIC (E. coli) was “E. coli, 50 μM” and the MIC (S. mutans [2]; S. mutans) was “S. mutans, 50 μM”.
With FIRKFLQKLHL [K-16] the MIC (MRSA) was “MRSA, 25 μM”, the MIC (P. aeruginosa) was 12.5 µM and the MIC (S. mutans [2]; S. mutans) was “S. mutans, 8 μM”.
In the case of “GSVIKKRRKRMAKKKHRKLLKKTRIQRRRAGK [PF-527]”, the MIC (MRSA) is reported as “MRSA, 50 μM”, the MIC (A. niger) is reported as “A. niger, 50 μM” and the MIC (T. rubrum) is reported as “T. rubrum, 25 μM”.
KFQGEFTNIGQSYIVSASHMSTSLNTGK [PF-583] was tested, and the MIC (MRSA) was “MRSA, 50 μM”.
KFSDQIDKGQDALKDKLGDL [PF-525] was tested, and the MIC (A. niger) was “A. niger, 50 μM”.
In the case of KNKKQTDILEKVKEILDKKKKTKSVGQKLY [PF-538], the MIC (C. difficile; C. difficile) is reported as “C. difficile, 25 μM”.
Work on “LGLTAGVAYAAQPTNQPTNQPTNQPTNQPTNQPTNQPRW-NH2 [PF-520]” yielded an MIC (S. pneumoniae; S. pneumoniae) of 50 µM.
For LSEMERRRLRKRA-NH2 [PF-529], the MIC (A. niger) was “A. niger, 50 μM” and the MIC (S. pneumoniae) was 50 µM.
In the case of LSLATFAKIFMTRSNWSLKRFNRL [PF-278], the MIC (T. rubrum) is reported as “T. rubrum, 50 μM”.
With MIRIRSPTKKKLNRNSISDWKSNTSGRFFY [PF-283] the MIC (B. subtilis) was “B. subtilis, 50 μM” and the MIC (T. rubrum) was “T. rubrum, 50 μM”.
MRFGSLALVAYDSAIKHSWPRPSSVRRLRM [PF-672] was tested, and the MIC (MRSA) was “MRSA, 1.56 μM” and the MIC (A. niger) was “A. niger, 3 μM”.
For NYAVVSHT [PF-209], the MIC (MRSA) was “MRSA, 50 μM”.
For RESKLIAMADMIRRRI-NH2 [PF-545], the MIC (MRSA) was “MRSA, 50 μM”.
With SLQSQLGPCLHDQRH [PF-448] the MIC (A. niger) was “A. niger, 25 μM”.
“TAFRLANRSATQALGKGGGKNLRIIRKGIHIIKKY-NH2 (C-terminus assumed) [F2/6/10-A2/6/10_C16G2]” was tested, and the “% viability remaining” value (S. mutans [1]) was 78%.
With “TFFRLFNRSFTQALAKGGGKNLRIIRKGIHIIKKY-NH2 (C-terminus assumed) [G15-A15_C16G2]” the “% viability remaining” value (S. mutans [1]) was 47%.
With “TFFRLFNRSFTQALDKGGGKNLRIIRKGIHIIKKY-NH2 (C-terminus assumed) [G15-D15_C16G2]” the “% viability remaining” value (S. mutans [1]) was 47%.
For “TFFRLFNRSFTQALFKGGGKNLRIIRKGIHIIKKY-NH2 (C-terminus assumed) [G15-F15_C16G2]”, the “% viability remaining” value (S. mutans [1]) was 29%.
For “TFFRLFNRSFTQALGKGGGKNLRIIRKGIHIIKKY-NH2 [C16G2, reference compound]”, the “% viability remaining” value (S. mutans [1]) was “antimicrobial peptide and GGG linker showed 5-18% remaining activity”.
For “TFFRLFNRSLTQALGKGGGKNLRIIRKGIHIIKKY-NH2 (C-terminus assumed) [F10-L10_C16G2]”, the “% viability remaining” value (S. mutans [1]) was 30%.
“TFFRLFNRSQTQALGKGGGKNLRIIRKGIHIIKKY-NH2 (C-terminus assumed) [F10 to Q10_C16G2]” was tested, and the “% viability remaining” value (S. mutans [1]) was 73%.
In the case of “TFFRLLNRSFTQALGKGGGKNLRIIRKGIHIIKKY-NH2 (C-terminus assumed) [F6-L6_C16G2]”, the “% viability remaining” value (S. mutans [1]) is reported as 43%.
“TFFRLQNRSFTQALGKGGGKNLRIIRKGIHIIKKY-NH2 (C-terminus assumed) [F6 to Q6_C16G2]” was tested, and the “% viability remaining” value (S. mutans [1]) was 79%.
With “TKKIELKRFVDAFVKKSYENYILERELKKLIKAINEELPTK [PF-600]” the MIC (E. coli) was “E. coli, 50 μM”.
For “TLFRLFNRSFTQALGKGGGKNLRIIRKGIHIIKKY-NH2 (C-terminus assumed) [F2-L2_C16G2]”, the “% viability remaining” value (S. mutans [1]) was 63%.
“TLFRLLNRSLTQALGKGGGKNLRIIRKGIHIIKKY-NH2 (C-terminus assumed) [F2F6F10-L2L6L10_C16G2]” was tested, and the “% viability remaining” value (S. mutans [1]) was 26%.
In the case of “TQFRLFNRSFTQALGKGGGKNLRIIRKGIHIIKKY-NH2 (C-terminus assumed) [F2 to Q2_C16G2]”, the “% viability remaining” value (S. mutans [1]) is reported as 47%.
For “TWFRLFNRSFTQALGKGGGKNLRIIRKGIHIIKKY-NH2 (C-terminus assumed) [F2-W2_C16G2]”, the “% viability remaining” value (S. mutans [1]) was 45%.
VLPFPAIPLSRRRACVAAPRPRSRQRAS [PF-168] was tested, and the MIC (MRSA) was “MRSA, 50 μM”.
Molecule VYRKRKSILKIYAKLKGWH [K-2] has an MIC (S. mutans [2]) of 12.5 µM.
For WSRVPGHSDTGWKVWHRW-NH2 [PF-547], the MIC (B. subtilis) was “B. subtilis, 25 μM”, the MIC (T. rubrum) was “T. rubrum, 25 μM” and the MIC (S. mutans [2]) was 12.5 µM.
With YIQFHLNQQPRPKVKKIKIFL-NH2 [PF-531] the MIC (A. niger) was “A. niger, 25 μM”, the MIC (B. subtilis) was “B. subtilis, 25 μM” and the MIC (T. rubrum) was “T. rubrum, 50 μM”. It also gave an MIC (A. baumannii) of 25 µM, an MIC (C. difficile) of 12.5 µM and an MIC (C. jeikeium) of 6.25 µM. For the same molecule, the MIC (P. aeruginosa) was 50 µM, the MIC (S. epidermidis) was 50 µM and the MIC (S. mutans [2]) was 12.5 µM.
